# Reference: patent publication US7109364B2, “Group of anti-cancer compounds with specific structure and their production method” (priority 2000, dated 2006)
# Columns and labels:
# [1] = tested on: K562 human leukemia cell line; assay: In vitro anti-cancer efficacy, K562, trypan blue dye exclusion, 48 hours; format: cell-based; settings: for IC50 / IC90: Homo sapiens, K562, Table 1, 48 hours; for IC50: read-out: K562 IC50; for IC90: read-out: K562 IC90
# Procedure: (§1) The above compounds were dissolved in DMSO at stock concentration of 10 mg/ml and stored at 4° C. Before each experiment they were diluted to desired concentration with serum-free RPMI 1640 medium
# 1. K562 human leukemia cell line: K562 cells were maintained in RPMI 1640 medium with 5% fetal bovine serum at 37° C. under 5% CO2 atmosphere. 4×10^4 cells/well were plated on 96-well plate. After treatment with the test compounds and solvent control (DMSO) for 48 hours, numbers of live cells were counted by trypan blue dye exclusion.
# (§2) Reagents and Methods: same as in Experiment 1.
# [2] = tested on: Delayed Hypersensitivity; assay: Delayed hypersensitivity (sheep RBC); format: in vivo, mouse (ICR strain)
# Procedure: 50 female ICR strain mice, weighing 18–21 g, were randomly divided into 5 groups of 10 each. The method of administration in each group was the same as above phagocytic function). However, on the 5th day after administration, each mouse was injected with 50 μl 10% sheep RBC suspension through tail vein. 4 days later (day 9), each mouse was injected intradermally with 20 μl 10 sheep RBC suspension or normal saline into metatarus of the left or right hind limbs, respectively. The digital thickness of each mouse was measured 24 hours later, and the difference in thickness between left and right digits was subject to t test analysis.
# [3] = tested on: Serum Hemolysinogenesis; format: in vivo, mouse (ICR strain)
# Procedure: 50 male ICR strain mice, weighing 20–23 g, were randomly divided into 5 groups of 10 each. The method of administration in each group was the same as above phagocytic function). However, on the 6th day after administration, 0.2 ml 3:5 (VN) sheep red blood cell (RBC) suspension was injected i.p. into each mouse. 4 days later (day 10), blood was drawn from all animals and serum was prepared and then diluted 600 times. 1 ml diluted serum was mixed with 0.5 ml 10% sheep RBC suspension. N.S. was used as blank control. All samples were incubated at 37° C. for 30 minutes, and centrifuged (2000 rev/min) for 5 minutes. The supernatant was collected for measurement of OD540 and HC50 was calculated.
# [4] = tested on: Phagocytic Function of Reticuloendothelial System; format: in vivo, mouse (ICR strain)
# Procedure: 50 female ICR strain mice, weighing 19–24 g, were randomly divided into 5 groups of 10 each. One group was given N.S. at 20 ml/kg i.g. as a normal control. A positive control group was given CTX i.g. at 25 mg/kg on day 1 and 6. A third group was given N-(13-methyl-tetradecanoyl)-4amino-1,2-benzenediol (Sample) only at 400 mg/kg i. g. The remaining two groups were given both CTX (25 mg/kg on day 1 and 6) and Sample (100 mg/kg and 400 mg/kg, respectively). All treatments except CTX were administered daily for 9 days. 30 minutes after the last administration, 0.15 ml Yidege (1:10) was injected into the tail vein of each mouse. 1 minute and 5 minutes after, blood was drawn and 20 μl serum was mixed with 0.1% […]. OD680 was measured and the clearance index K=(1 gOD1–1 gOD2)/(t2−t1) was calculated.
# [5] = tested on: B16 mouse melanoma cell line; assay: In vitro anti-cancer efficacy, B16, SRB method, 48 hours; format: cell-based; settings: for IC50 / IC90: Mus musculus, Table 1, 48 hours; for IC50: read-out: B16 IC50; for IC90: read-out: B16 IC90
# Procedure: as §1
# 2. B16 mouse melanoma cell line: B16 cells were maintained under the same condition as above. 2×10^4 cells/well were plated on 48-well plate and left for 12 hours for attachment. Cells were then treated with the test compounds and solvent control for 48 hours. Numbers of live cells were determined by SRB method. Briefly, cells were fixed with 50 μl/well 15% TCA for 1 hour, and then washed three times with double-distilled water. After drying 50 μl/well 1% SRB dye was added and reacted for 10 minutes. Plate was washed with 1% acetic acid. 0.2 ml Tris buffer (pH 9.6) was added and OD510 was recorded.
# as §2
# [6] = tested on: Mouse cervical carcinoma U14; assay: In vivo anti-cancer efficacy, solid tumor model; settings: for Tumor W.: ± SD
# From the text: Mouse cervical carcinoma U14 model was used to compare in vivo anti-cancer efficacy of 15-methyl-2-hexadecenoic acid, 13-methyl-tetradecanoic acid and the chemotherapy drug cytoxan (CTX).
# 40 male ICR strain mice, weighing 19–22 g, were randomly divided into 4 groups of 10 each. U14 cervical carcinoma mass (about 2 mm^3 each) was transplanted subcutaneously into the right armpits of all animals following standard procedure. The test group was given 15-methyl-2-hexadecenoic acid and 13-methyl-tetradecanoic acid at 0.4 g/kg, respectively, intragastrically (i.g.) daily for 11 days. The positive control group was given a single dose of CTX i.g. (25 mg/kg) on day 1. Negative control group was given normal saline (N.S.) at 0.2 ml/10 g daily for 11 days. On the 12th day, all mice were sacrificed and the tumors were isolated and weighed. The tumor inhibition rate (TIR) was calculated and subject to t test.
# [7] = tested on: ICR strain mice; assay: Acute toxicity, gavage administration; format: in vivo, mouse (ICR strain); settings: 2.5 g/kg twice a day, 14 days monitoring
# Procedure: The acute toxicity tests were assessed for two administration routes, through gavage and subcutaneous injection.
# Thus, the acute toxicity test was conducted in twenty ICR strain mice, weighing 18–20 g. The Sample was given through gavage at dosage of 2.5 g/kg, twice a day. Continuous monitoring was made for 14 days.
# [8] = tested on: human breast carcinoma MCF7ras; format: in vivo
# Procedure: Thirty female Balb/c-nu/nu athymic mice, 6 weeks old, weighing 18–22 g, were housed in specific pathogen free (SPF) condition throughout the course of the experiment.
# Subcutaneous transplantation of human breast carcinoma MCF7ras was carried out under aseptic condition. Tumor mass was cut into fragments (approximately 0.18×0.18×0.20 mm in size), and injected s.c. into the right mammary fat pad of each animal with a trocar. The mice were randomized into control and test groups of ten mice each. The day after transplantation, the mice in the test group were given through gavage 13-methyl-2-tetradecenoic acid at 400 mg/kg daily. The mice in two control groups were administered with CTX at 25 mg/kg and N.S. at 0.2 ml/10 g. All animals were sacrificed on day 23. The body weights and tumor weights were measured. The tumor inhibition rates (TIR) were determined by comparing the mean tumor weight of the test groups (T) with that of the control group (C) and expressed as a (C-T)/C percentage, and were analyzed by Student's test for statistical significance.
# [9] = format: in vivo, mouse (ICR strain); settings: single agent i.g.: Sample (N-(13-methyl-tetradecanoyl)-4-amino-1,2-benzenediol) 0.4 g/kg; CTX 25 mg/kg
# From the text: The mice were sacrificed after delayed hypersensitivity test above and the thymus and […] were collected and weighed.
# [10] = Table 2, unit inferred, methods same as in Experiment 1
# [11] = day 12, test compounds 0.4 g/kg i.g. daily 11 days, CTX 25 mg/kg i.g. single dose
# [12] = single agent i.g.: Sample (N-(13-methyl-tetradecanoyl)-4-amino-1,2-benzenediol) 0.4 g/kg, CTX 25 mg/kg, X ± SD
compound,measurement,setting,value
"CC(C)CCCCCCCCCCCC(=O)Nc1ccc(O)c(O)c1 [Compound 1, N-(3,4-Dihydroxyphenyl)-13-methyl tetradecanamide]",IC50,[1],4.98 µg/mL
same,IC90,[1],10.1 µg/mL
same,inhibitory effect to the delayed hypersensitivity of both normal and CTX-treated mice,[2]; in words,no inhibitory effect
same,effects on serum hemolysinogenesis in either normal or immune-compromised mouse,[3]; in words,no obvious effects
same,effect on the Clearance Index of Carbon grain in normal mouse,"[4]; 400 mg/kg i.g., in words",no obvious effect
same,IC50,[5],5.12 µg/mL
same,IC90,[5],9.28 µg/mL
15-Methyl-2-hexadecanoic acid [Compound 29],K562 IC50,[1]; [10],10.1 µg/mL
same,K562 IC90,[1]; [10],17.7 µg/mL
same,B16 IC50,[5]; [10],6.8 µg/mL
same,B16 IC90,[5]; [10],10.5 µg/mL
same,TIR (tumor inhibition rate),[6]; [11],81.0%
same,Tumor W.,[6]; [11],0.50 ± 0.29 g
same,Body W. D1,"[6]; mouse, in vivo",20.6 ± 0.7 g
same,observation after gavage,[7],No major anomaly was observed
same,LD50,[7]; mice,> 5000 mg/kg
"O=P1(N(CCCl)CCCl)NCCCO1 (stereo not shown) [CTX, cytoxan, reference compound]",Difference in thickness between left and right palm,[2]; [12],1.25 ± 0.48 mm
same,HC50,[3]; [12],22.51 ± 4.30
same,Body weight D1,"[8]; MCF7ras nude mice, day 1 (baseline), X ± SD",20.4 ± 0.4 g
same,Body weight D23,"[8]; MCF7ras nude mice, day 23, test 400 mg/kg gavage daily, CTX 25 mg/kg",18.6 ± 0.2 g
same,"TIR (tumor inhibition rate, (C-T)/C percentage)","[8]; day 23, test 400 mg/kg gavage daily, CTX 25 mg/kg",76.5%
same,Tumor W.,"[8]; day 23, test 400 mg/kg gavage daily, CTX 25 mg/kg, X ± SD",0.43 ± 0.15 g
same,K (clearance index of carbon grain),"[4]; single agent i.g.: Sample (N-(13-methyl-tetradecanoyl)-4-amino-1,2-benzenediol) 400 mg/kg daily 9 days, CTX 25 mg/kg day 1 and 6, X ± SD",0.0238 ± 0.0161
same,Body W. D1,"[6]; U14 mice, day 1 (baseline), X ± SD",20.6 ± 0.5 g
same,Body W. D12,"[6]; U14 mice, day 12, test compounds 0.4 g/kg i.g. daily 11 days, CTX 25 mg/kg i.g. single dose",22.6 ± 1.2 g
same,TIR (tumor inhibition rate),[6]; [11],82.5%
same,Tumor W.,[6]; [11],0.46 ± 0.17 g
same,Indices of pancreas,[9],2.287 ± 1.023 mg/10 g avoirdupois
same,Indices of thymus,[9],1.387 ± 0.701 mg/10 g avoirdupois
"CC(C)(C)CCCCCCCCCCCC(=O)O [Compound 31, 13,13-Dimethyl-tetradecanoic acid]",IC50,[1],24.6 µg/mL
same,IC90,[1],37.5 µg/mL
same,melting point,,37 to 39 °C
same,IC50,[5],20.4 µg/mL
same,IC90,[5],35.6 µg/mL
